From ChEMBL document CHEMBL1201861, “Genomics of Drug Sensitity in Cancer screening data, Wellcome Trust Sanger Institute”

How the values were obtained:
Assay in all cases: cells
ES1 = assay type: functional, cell-based, Homo sapiens; details: Homo sapiens, ES1
Description: SANGER: Inhibition of human ES1 cell growth in a cell viability assay.

ES4 = assay type: functional, cell-based, Homo sapiens; details: Homo sapiens, ES4
Description: SANGER: Inhibition of human ES4 cell growth in a cell viability assay.

EW-13 = assay type: functional, cell-based, Homo sapiens; details: Homo sapiens, EW-13; read-out: IC50
Description: SANGER: Inhibition of human EW-13 cell growth in a cell viability assay.

EW-16 = assay type: functional, cell-based, Homo sapiens; details: Homo sapiens, EW-16
Description: SANGER: Inhibition of human EW-16 cell growth in a cell viability assay.

HCC2157 = assay type: functional, cell-based, Homo sapiens; details: Homo sapiens, HCC2157
Description: SANGER: Inhibition of human HCC2157 cell growth in a cell viability assay.

HOP-62 = assay type: functional, cell-based, Homo sapiens; details: Homo sapiens, HOP-62
Description: SANGER: Inhibition of human HOP-62 cell growth in a cell viability assay.

IST-MEL1 = assay type: functional, cell-based, Homo sapiens; details: Homo sapiens, IST-MEL1
Description: SANGER: Inhibition of human IST-MEL1 cell growth in a cell viability assay.

JVM-3 = assay type: functional, cell-based, Homo sapiens; details: Homo sapiens, JVM-3
Description: SANGER: Inhibition of human JVM-3 cell growth in a cell viability assay.

KALS-1 = assay type: functional, cell-based, Homo sapiens; details: Homo sapiens, KALS-1; read-out: IC50
Description: SANGER: Inhibition of human KALS-1 cell growth in a cell viability assay.

KARPAS-299 = assay type: functional, cell-based, Homo sapiens; details: Homo sapiens, KARPAS-299
Description: SANGER: Inhibition of human KARPAS-299 cell growth in a cell viability assay.

KE-37 = assay type: functional, cell-based, Homo sapiens; details: Homo sapiens, KE-37
Description: SANGER: Inhibition of human KE-37 cell growth in a cell viability assay.

KNS-81-FD = assay type: functional, cell-based, Homo sapiens; details: Homo sapiens, KNS-81-FD
Description: SANGER: Inhibition of human KNS-81-FD cell growth in a cell viability assay.

KP-N-YS = assay type: functional, cell-based, Homo sapiens; details: Homo sapiens, KP-N-YS
Description: SANGER: Inhibition of human KP-N-YS cell growth in a cell viability assay.

LAMA-84 = assay type: functional, cell-based, Homo sapiens; details: Homo sapiens, LAMA-84
Description: SANGER: Inhibition of human LAMA-84 cell growth in a cell viability assay.

LAN-6 = assay type: functional, cell-based, Homo sapiens; details: Homo sapiens, LAN-6
Description: SANGER: Inhibition of human LAN-6 cell growth in a cell viability assay.

LB771-HNC = assay type: functional, cell-based; details: Homo sapiens
Description: SANGER: Inhibition of human LB771-HNC cell growth in a cell viability assay.

LB831-BLC = assay type: functional, cell-based, Homo sapiens; details: Homo sapiens, LB831-BLC
Description: SANGER: Inhibition of human LB831-BLC cell growth in a cell viability assay.

LB996-RCC = assay type: functional, cell-based, Homo sapiens; details: Homo sapiens, LB996-RCC
Description: SANGER: Inhibition of human LB996-RCC cell growth in a cell viability assay.

LC-2-ad = assay type: functional, cell-based, Homo sapiens; details: Homo sapiens, LC-2-ad
Description: SANGER: Inhibition of human LC-2-ad cell growth in a cell viability assay.

LNCaP-Clone-FGC = assay type: functional, cell-based, Homo sapiens; details: Homo sapiens, LNCaP-Clone-FGC
Description: SANGER: Inhibition of human LNCaP-Clone-FGC cell growth in a cell viability assay.

LS-513 = assay type: functional, cell-based, Homo sapiens; details: Homo sapiens, LS-513
Description: SANGER: Inhibition of human LS-513 cell growth in a cell viability assay.

LU-134-A = assay type: functional, cell-based, Homo sapiens; details: Homo sapiens, LU-134-A
Description: SANGER: Inhibition of human LU-134-A cell growth in a cell viability assay.

ML-2 = assay type: functional, cell-based, Homo sapiens; details: Homo sapiens, ML-2
Description: SANGER: Inhibition of human ML-2 cell growth in a cell viability assay.

MOLT-16 = assay type: functional, cell-based, Homo sapiens; details: Homo sapiens, MOLT-16
Description: SANGER: Inhibition of human MOLT-16 cell growth in a cell viability assay.

MSTO-211H = assay type: functional, cell-based, Homo sapiens; details: Homo sapiens, MSTO-211H
Description: SANGER: Inhibition of human MSTO-211H cell growth in a cell viability assay.

MZ1-PC = assay type: functional, cell-based, Homo sapiens; details: Homo sapiens, MZ1-PC
Description: SANGER: Inhibition of human MZ1-PC cell growth in a cell viability assay.

NCI-H1395 = assay type: functional, cell-based, Homo sapiens; details: Homo sapiens, NCI-H1395
Description: SANGER: Inhibition of human NCI-H1395 cell growth in a cell viability assay.

NCI-H209 = assay type: functional, cell-based, Homo sapiens; details: Homo sapiens, NCI-H209
Description: SANGER: Inhibition of human NCI-H209 cell growth in a cell viability assay.

NCI-H747 = assay type: functional, cell-based, Homo sapiens; details: Homo sapiens, NCI-H747
Description: SANGER: Inhibition of human NCI-H747 cell growth in a cell viability assay.

SNU1 = assay type: functional, cell-based, Homo sapiens; details: Homo sapiens, SNU1
Description: SANGER: Inhibition of human NCI-SNU-1 cell growth in a cell viability assay.

NOMO-1 = assay type: functional, cell-based, Homo sapiens; details: Homo sapiens, NOMO-1
Description: SANGER: Inhibition of human NOMO-1 cell growth in a cell viability assay.

ONS-76 = assay type: functional, cell-based, Homo sapiens; details: Homo sapiens, ONS-76
Description: SANGER: Inhibition of human ONS-76 cell growth in a cell viability assay.

RH-1 = assay type: functional, cell-based, Homo sapiens; details: Homo sapiens, RH-1
Description: SANGER: Inhibition of human RH-1 cell growth in a cell viability assay.

RKO = assay type: functional, cell-based, Homo sapiens; details: Homo sapiens, RKO
Description: SANGER: Inhibition of human RKO cell growth in a cell viability assay.

RPMI-8866 = assay type: functional, cell-based, Homo sapiens; details: Homo sapiens, RPMI-8866
Description: SANGER: Inhibition of human RPMI-8866 cell growth in a cell viability assay.

SCH = assay type: functional, cell-based, Homo sapiens; details: Homo sapiens, SCH
Description: SANGER: Inhibition of human SCH cell growth in a cell viability assay.

SHP77 = assay type: functional, cell-based, Homo sapiens, SHP-77; details: Homo sapiens, SHP77
Description: SANGER: Inhibition of human SHP-77 cell growth in a cell viability assay.

SK-N-FI = assay type: functional, cell-based, Homo sapiens; details: Homo sapiens, SK-N-FI
Description: SANGER: Inhibition of human SK-N-FI cell growth in a cell viability assay.

A101D = assay type: functional, cell-based, Homo sapiens; details: Homo sapiens, A101D
Description: SANGER: Inhibition of human A101D cell growth in a cell viability assay.

ACN = assay type: functional, cell-based, Homo sapiens; details: Homo sapiens, ACN
Description: SANGER: Inhibition of human ACN cell growth in a cell viability assay.

AM-38 = assay type: functional, cell-based, Homo sapiens; details: Homo sapiens, AM-38
Description: SANGER: Inhibition of human AM-38 cell growth in a cell viability assay.

BB30-HNC = assay type: functional, cell-based, Homo sapiens; details: Homo sapiens, BB30-HNC
Description: SANGER: Inhibition of human BB30-HNC cell growth in a cell viability assay.

Becker = assay type: functional, cell-based, Homo sapiens; details: Homo sapiens, Becker
Description: SANGER: Inhibition of human Becker cell growth in a cell viability assay.

C8166 = assay type: functional, cell-based, Homo sapiens; details: Homo sapiens, C8166
Description: SANGER: Inhibition of human C8166 cell growth in a cell viability assay.

TE-5 = assay type: functional, cell-based, Homo sapiens; details: Homo sapiens, TE-5
Description: SANGER: Inhibition of human TE-5 cell growth in a cell viability assay.

U-87 MG = assay type: functional, cell-based, Homo sapiens, U-87MG ATCC; details: Homo sapiens, U-87 MG
Description: SANGER: Inhibition of human U-87-MG cell growth in a cell viability assay.

CAS-1 = assay type: functional, cell-based, Homo sapiens; details: Homo sapiens, CAS-1
Description: SANGER: Inhibition of human CAS-1 cell growth in a cell viability assay.

CCRF-CEM = assay type: functional, cell-based, Homo sapiens; details: Homo sapiens, CCRF-CEM
Description: SANGER: Inhibition of human CCRF-CEM cell growth in a cell viability assay.

## COc1ccc(-c2cc3nccn3c(Nc3ncccc3C(N)=O)n2)cc1OC
ES1
  IC50: 2380 nM
ES4
  IC50: 1240 nM
EW-13
  IC50: 1470 nM
EW-16
  IC50: 1680 nM
HCC2157
  IC50: > 8000 nM
HOP-62
  IC50: 1750 nM
IST-MEL1
  IC50: 4610 nM
JVM-3
  IC50: > 8000 nM
KALS-1
  IC50: > 8000 nM
KARPAS-299
  IC50: > 8000 nM
KE-37
  IC50: 835 nM
KNS-81-FD
  IC50: > 8000 nM
KP-N-YS
  IC50: 7000 nM
LAMA-84
  IC50: > 8000 nM
LAN-6
  IC50: > 8000 nM
LB771-HNC
  IC50: > 8000 nM
LB831-BLC
  IC50: 1020 nM
LB996-RCC
  IC50: 1700 nM
LC-2-ad
  IC50: 1820 nM
LNCaP-Clone-FGC
  IC50: 2180 nM
LS-513
  IC50: > 8000 nM
LU-134-A
  IC50: 4320 nM
ML-2
  IC50: > 8000 nM
MOLT-16
  IC50: 571 nM
MSTO-211H
  IC50: > 8000 nM
MZ1-PC
  IC50: 3490 nM
NCI-H1395
  IC50: > 8000 nM
NCI-H209
  IC50: > 8000 nM
NCI-H747
  IC50: > 8000 nM
SNU1
  IC50: 1990 nM
NOMO-1
  IC50: 7380 nM
ONS-76
  IC50: > 8000 nM
RH-1
  IC50: 4670 nM
RKO
  IC50: 2770 nM
RPMI-8866
  IC50: > 8000 nM
SCH
  IC50: > 8000 nM
SHP77
  IC50: > 8000 nM
SK-N-FI
  IC50: > 8000 nM
A101D
  IC50: 4870 nM
ACN
  IC50: > 8000 nM
AM-38
  IC50: > 8000 nM
BB30-HNC
  IC50: 2820 nM
Becker
  IC50: > 8000 nM
C8166
  IC50: 2200 nM
TE-5
  IC50: 5540 nM
U-87 MG
  IC50: > 8000 nM
CAS-1
  IC50: 4500 nM
CCRF-CEM
  IC50: 1980 nM

## COC(=O)[C@H](CCSC)NC(=O)c1ccc(NC[C@@H](N)CS)cc1-c1ccccc1
ES1
  IC50: > 1020 nM
ES4
  IC50: > 1020 nM
EW-13
  IC50: > 1020 nM
EW-16
  IC50: > 1020 nM
HCC2157
  IC50: > 1020 nM
HOP-62
  IC50: > 1020 nM
IST-MEL1
  IC50: > 1020 nM
JVM-3
  IC50: > 1020 nM
KALS-1
  IC50: > 1020 nM
KARPAS-299
  IC50: > 1020 nM
KE-37
  IC50: > 1020 nM
KNS-81-FD
  IC50: > 1020 nM
KP-N-YS
  IC50: > 1020 nM
LAMA-84
  IC50: > 1020 nM
LAN-6
  IC50: > 1020 nM
LB771-HNC
  IC50: > 1020 nM
LB831-BLC
  IC50: > 1020 nM
LB996-RCC
  IC50: > 1020 nM
LC-2-ad
  IC50: > 1020 nM
LNCaP-Clone-FGC
  IC50: > 1020 nM
LS-513
  IC50: > 1020 nM
LU-134-A
  IC50: > 1020 nM
ML-2
  IC50: > 1020 nM
MOLT-16
  IC50: > 1020 nM
MSTO-211H
  IC50: > 1020 nM
MZ1-PC
  IC50: > 1020 nM
NCI-H1395
  IC50: > 1020 nM
NCI-H209
  IC50: > 1020 nM
NCI-H747
  IC50: > 1020 nM
SNU1
  IC50: > 1020 nM
NOMO-1
  IC50: > 1020 nM
ONS-76
  IC50: 838 nM
RH-1
  IC50: > 1020 nM
RKO
  IC50: > 1020 nM
RPMI-8866
  IC50: > 1020 nM
SCH
  IC50: > 1020 nM
SHP77
  IC50: > 1020 nM
SK-N-FI
  IC50: > 1020 nM
A101D
  IC50: > 1020 nM
ACN
  IC50: > 1020 nM
AM-38
  IC50: > 1020 nM
BB30-HNC
  IC50: > 1020 nM
Becker
  IC50: > 1020 nM
C8166
  IC50: > 1020 nM
TE-5
  IC50: > 1020 nM
U-87 MG
  IC50: > 1020 nM
CAS-1
  IC50: > 1020 nM
CCRF-CEM
  IC50: > 1020 nM
